Source: patent publication US20210277003A1, “OGA INHIBITOR COMPOUNDS” (Janssen Pharmaceutica NV, priority 2018, published 2021)

Tests used:
[1] = molecular target: T1, recombinant human Meningioma Expressed Antigen 5 (MGEA5), also referred to as O-GlcNAcase (OGA) (Homo sapiens, UniProt O60502); assay: OGA biochemical assay: inhibition of hydrolysis of fluorescein mono-ß-D-N-Acetyl-Glucosamine (FM-GlcNAc), fluorescence readout; details: FM-GlcNAc substrate; for Emax: read-out: Enzymatic Emax (%); for IC50: read-out: Enzymatic hOGA, pIC50 (converted)
T1 construct: Full length OGA enzyme was purchased at OnGene (cat #TP322411); purchased OnGene (so in the source)
T1 sequence (O60502 1-916): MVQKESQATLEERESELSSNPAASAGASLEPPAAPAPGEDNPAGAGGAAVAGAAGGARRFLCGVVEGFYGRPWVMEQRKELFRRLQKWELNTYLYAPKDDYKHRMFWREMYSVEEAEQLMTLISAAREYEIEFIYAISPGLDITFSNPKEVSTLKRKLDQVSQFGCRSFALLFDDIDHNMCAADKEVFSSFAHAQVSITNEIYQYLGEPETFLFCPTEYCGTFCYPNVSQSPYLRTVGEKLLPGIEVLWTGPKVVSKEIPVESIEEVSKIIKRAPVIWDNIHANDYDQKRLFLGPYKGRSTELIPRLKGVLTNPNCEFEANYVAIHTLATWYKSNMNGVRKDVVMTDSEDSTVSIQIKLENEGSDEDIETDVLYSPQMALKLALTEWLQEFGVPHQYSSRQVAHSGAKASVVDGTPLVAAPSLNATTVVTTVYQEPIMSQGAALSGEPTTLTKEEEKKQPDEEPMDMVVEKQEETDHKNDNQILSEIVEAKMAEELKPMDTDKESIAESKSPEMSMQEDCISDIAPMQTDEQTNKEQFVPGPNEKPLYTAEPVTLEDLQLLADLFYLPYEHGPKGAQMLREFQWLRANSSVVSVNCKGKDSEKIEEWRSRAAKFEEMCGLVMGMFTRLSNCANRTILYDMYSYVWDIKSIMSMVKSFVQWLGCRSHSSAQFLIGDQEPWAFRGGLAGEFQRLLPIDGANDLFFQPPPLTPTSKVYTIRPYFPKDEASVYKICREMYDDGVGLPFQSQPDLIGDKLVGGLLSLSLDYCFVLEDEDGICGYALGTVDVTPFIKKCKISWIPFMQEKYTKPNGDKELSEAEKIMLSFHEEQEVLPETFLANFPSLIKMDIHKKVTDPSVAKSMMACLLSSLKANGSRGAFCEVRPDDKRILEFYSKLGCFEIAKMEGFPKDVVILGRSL
Source text: The assay is based on the inhibition of the hydrolysis of fluorescein mono-ß-D-N-Acetyl-Glucosamine (FM-GlcNAc) (Mariappa et al. 2015, Biochem J 470:255) by the recombinant human Meningioma Expressed Antigen 5 (MGEA5), also referred to as O-GlcNAcase (OGA). The hydrolysis FM-GlcNAc (Marker Gene technologies, cat #M1485) results in the formation of ß-D-N-glucosamineacetate and fluorescein. The fluorescence of the latter can be measured at excitation wavelength 485 nm and emission wavelength 538 nm. An increase in enzyme activity results in an increase in fluorescence signal. Full length OGA enzyme was purchased at OnGene (cat #TP322411). The enzyme was stored in 25 mM Tris.HCl, pH 7.3, 100 mM glycine, 10% glycerol at −20° C. Thiamet G and GlcNAcStatin were tested as reference compounds (Yuzwa et al. 2008 Nature Chemical Biology 4:483; Yuzwa et al. 2012 Nature Chemical Biology 8:393). The assay was performed in 200 mM Citrate/phosphate buffer supplemented with 0.005% Tween-20. 35.6 g Na2HPO4 2 H2O (Sigma, #C0759) were dissolved in 1 L water to obtain a 200 mM solution. 19.2 g citric acid (Merck, #1.06580) was dissolved in 1 L water to obtain a 100 mM solution. pH of the sodium phosphate solution was adjusted with the citric acid solution to 7.2. The buffer to stop the reaction consists of a 500 mM Carbonate buffer, pH 11.0. 734 mg FM-GlcNAc were dissolved in 5.48 mL DMSO to obtain a 250 mM solution and was stored at −20° C. OGA was used at a 2 nM concentration and FM-GlcNAc at a 100 uM final concentration. Dilutions were prepared in assay buffer. 50 nl of a compound dissolved in DMSO was dispensed on Black Proxiplate™ 384 Plus Assay plates (Perkin Elmer, #6008269) and 3 μl fl-OGA enzyme mix added subsequently. Plates were pre-incubated for 60 min at room temperature and then 2 μl FM-GlcNAc substrate mix added. […] Plates were briefly centrifuged for 1 min at 1000 rpm and incubate at room temperature for 6 h. To stop the reaction 5 μl STOP buffer were added and plates centrifuge again 1 min at 1000 rpm. Fluorescence was quantified in the Thermo Scientific Fluoroskan Ascent or the PerkinElmer EnVision with excitation wavelength 485 nm and emission wavelength 538 nm. For analysis a best-fit curve is fitted by a minimum sum of squares method. From this an IC50 value and Hill coefficient was obtained. High control (no inhibitor) and low control (saturating concentrations of standard inhibitor) were used to define the minimum and maximum values.

[2] = tested on: OGA in HEK293 cells inducible for P301L mutant human Tau (isoform 2N4R); assay: OGA cellular assay: immunocytochemical detection of O-GlcNAcylated proteins (CTD110.6 antibody); assay type: cell-based; details: Homo sapiens, HEK293, 6 h, 6 hours incubation; for Emax: maximum = Thiamet G 200 uM; for EC50: read-out: Cellular hOGA, pEC50 (converted)
Procedure: HEK293 cells inducible for P301L mutant human Tau (isoform 2N4R) were established at Janssen. Thiamet-G was used for both plate validation (high control) and as reference compound (reference EC50 assay validation). OGA inhibition is evaluated through the immunocytochemical (ICC) detection of O-GlcNAcylated proteins by the use of a monoclonal antibody (CTD110.6; Cell Signaling, #9875) detecting 0-GlcNAcylated residues as previously described (Dorfmueller et al. 2010 Chemistry & biology, 17:1250). Inhibition of OGA will result in an increase of O-GlcNAcylated protein levels resulting in an increased signal in the experiment. Cell nuclei are stained with Hoechst to give a cell culture quality control and a rough estimate of immediate compounds toxicity, if any. ICC pictures are imaged with a Perkin Elmer Opera Phenix plate microscope and quantified with the provided software Perkin Elmer Harmony 4.1.
Cells were propagated in DMEM high Glucose (Sigma, #D5796) following standard procedures. 2 days before the cell assay cells are split, counted and seeded in Poly-D-Lysine (PDL) coated 96-wells (Greiner, #655946) plate at a cell density of 12,000 cells per cm^2 (4,000 cells per well) in 100p of Assay Medium (Low Glucose medium is used to reduce basal levels of GlcNAcylation) (Park et al. 2014 The Journal of biological chemistry 289:13519). At the day of compound test medium from assay plates was removed and replenished with 90 µl of fresh Assay Medium. 10p of compounds at a 10 fold final concentration were added to the wells. Plates were centrifuged shortly before incubation in the cell incubator for 6 hours. DMSO concentration was set to 0.2%. Medium is discarded by applying vacuum. For staining of cells medium was removed and cells washed once with 100 μl D-PBS (Sigma, #D8537). From next step onwards unless other stated assay volume was always 50p and incubation was performed without agitation and at room temperature. Cells were fixed in 50 μl of a 4% paraformaldehyde (PFA, Alpha aesar, #043368) PBS solution for 15 minutes at room temperature. […] Before analysis samples were washed 2 times manually for 5 minutes in ICC base buffer.
Imaging is performed using Perkin Elmer Phenix Opera using a water 20× objective and recording 9 fields per well. Intensity readout at 488 nm is used as a measure of O-GlcNAcylation level of total proteins in wells. To assess potential toxicity of compounds nuclei were counted using the Hoechst staining. IC50-values are calculated using parametric non-linear regression model fitting. As a maximum inhibition Thiamet G at a 200 uM concentration is present on each plate. In addition, a concentration response of Thiamet G is calculated on each plate.

Row | Emax [1] [%] | IC50 [1] [nM] | Enzymatic hOGA; pIC50 [1] | Compound | Emax [2] [%] | EC50 [2] [nM]
1 | 100 | 191 | – | Cc1ccnc(C)c1Nc1nccc2c1ccn2CCC(C)(C)C#N [Compound 26] | 64 | 479
2 | 102 | – | 7.8 | CCCCn1ccc2c(Nc3c(C)cnnc3C(C)C)nccc21 [Compound 19] | 94 | 83.2
3 | 102 | – | 8.84 | Cc1ccnc(C)c1Nc1nccc2c1ccn2CC(F)(F)C1CC1 [Compound 23] | 97 | 2.95
4 | 103 | – | 8.07 | Cc1ccnc(C(C)C)c1Nc1nccc2c1ccn2CC1CCCO1 (centres unmarked) [Compound 138] | 66.8 | 74.1
5 | 102 | 151 | – | Cc1cncc(C)c1Nc1nccc2c1ccn2CC1CC1(F)F (centres unmarked) [Compound 1] | 56 | 708
6 | 101 | – | 8.57 | Cc1cc(Cl)cc(C)c1Nc1nccc2c1ccn2CC(C)(F)F [Compound 150] | 82.1 | 5.37
7 | 101 | – | 7.56 | Cc1cc(OC(F)F)nc(C)c1Nc1nccc2c1ccn2CC1CC(F)(F)C1 [Compound 146] | 76.3 | 45.7
8 | 101 | 11.7 | – | Cc1ccnc(C)c1Nc1nccc2c1ccn2CCC(C)C [Compound 47] | 95 | 47.9
9 | 101 | – | 7.64 | Fc1cc(Cl)c(Nc2nccc3c2ccn3CC2CCCO2)c(Cl)c1 (centres unmarked) [Compound 136] | 74.9 | 240
10 | 98.2 | 3.02 | – | Cc1ccnc(C(C)(C)F)c1Nc1nccc2c1ccn2CC(C)(F)F [Compound 205] | 88.6 | 9.55
11 | 103 | 2.88 | – | CCCCn1ccc2c(Nc3c(C)cncc3C(C)C)nccc21 [Compound 63] | 93 | 12.3
12 | 103 | – | 7.91 | Cc1cncc(C(C)(C)O)c1Nc1nccc2c1ccn2CC1CCO1 (centres unmarked) [Compound 125] | 74.8 | 43.7

Continued, compound first:

Row | Compound | Emax [1] [%] | IC50 [1] [nM] | Enzymatic hOGA; pIC50 [1] | Emax [2] [%] | EC50 [2] [nM]
13 | CCCCn1ccc2c(Nc3c(C)cc(C(=O)OC)cc3C)nccc21 [Compound 64] | 102 | 3.98 | – | 80 | 24.5
14 | Cc1cc(Cl)cc(C(F)(F)F)c1Nc1nccc2c1ccn2CC(C)(F)F [Compound 129] | 100 | – | 8.59 | 104 | 7.41
15 | CCCCn1ccc2c(Nc3c(C)ccc(C(=O)N4CCOCC4)c3C)nccc21 [Compound 13] | 105 | – | 8.49 | 87 | 28.2
16 | FC(F)(F)CCn1ccc2c(Nc3c(Cl)cccc3Cl)nccc21 [Compound 200] | 103 | 23.4 | – | 70.1 | 513
17 | FC1(F)CC(Cn2ccc3c(Nc4c(Cl)cccc4Cl)nccc32)C1 [Compound 91] | 102 | – | 8 | 73 | 79.4
18 | CCCCn1ccc2c(Nc3c(Cl)cccc3Cl)nccc21 [Compound 71] | 101 | 2.24 | – | 78 | 47.9
19 | CC(C)C(F)(F)Cn1ccc2c(Nc3c(Cl)cccc3Cl)nccc21 [Compound 196] | 104 | 1.51 | – | 91.7 | 8.51
20 | Cc1cnc(-n2ccc3c(Nc4c(Cl)cc(F)cc4Cl)nccc32)o1 [Compound 183] | 95.3 | 501 | – | 13.9 | > 1000
21 | CCCCn1ccc2c(Nc3c(C)cc(CF)cc3C)nccc21 [Compound 101] | 103 | 3.24 | – | 83 | 57.5
22 | CCCCn1c(F)cc2c(Nc3c(C)cncc3C)nccc21 [Compound 31] | 99 | 302 | – | 27 | > 1000
23 | CC(C)=C(F)Cn1ccc2c(Nc3c(C)cc(-c4cnn(C)c4)cc3C)nccc21 [Compound 208] | 101 | 10.2 | – | 90.1 | 72.4
24 | Cc1cc(Cl)cc(S(C)(=O)=O)c1Nc1nccc2c1ccn2CC1CC(F)(F)C1 [Compound 173] | 101 | 23.4 | – | 88.5 | 158
25 | CCCCn1ccc2c(Nc3c(C)ccc4[nH]nnc34)nccc21 [Compound 12] | 99 | – | 7.31 | 64 | 562
26 | CCCCn1ccc2c(Nc3c(C)cc4c(c3C)CC(=O)N(C)C4)nccc21 [Compound 88] | 103 | 4.07 | – | 95 | 10.7
